According to US10316017B2, “COT modulators and methods of use thereof” (Gilead Sciences, Inc., priority 2015, dated 2019):

Each compound was assayed against T1, human Cot catalytic domain (30-397 amino acids) (Homo sapiens, UniProt P41279) (assay: High Throughput Cot Biochemical Assay (KinEASE TR-FRET)). Details: Cot KinEASE TR-FRET, 400 μM ATP; read-out: IC50 HTRF.
T1 construct: Purified recombinant human Cot catalytic domain (30-397 amino acids) was purchased from Cama Biosciences; purchased Cama Biosciences (so in the source)
Procedure: Example 61: High Throughput Cot Biochemical Assay
In this assay, Cot-catalyzes the phosphorylation of a XL665-labeled peptide substrate. Europium conjugated phospho-tyrosine specific antibody binds the resulting phosphorylated peptide. […] Purified recombinant human Cot catalytic domain (30-397 amino acids) was purchased from Cama Biosciences. […] The standard 5 μL reaction mixture contained 400 μM ATP, 1 μM STK3 peptide, 5 nM of Cot in reaction buffer (10 mM MOPS, pH 7.0, 0.02% NaN3, 0.5 mg/mL BSA, 10 mM MgOAc, 1 mM DTT, 0.025% NP-40, 1.5% glycerol) and 0.1% DMSO.

T1 sequence (P41279 30-397): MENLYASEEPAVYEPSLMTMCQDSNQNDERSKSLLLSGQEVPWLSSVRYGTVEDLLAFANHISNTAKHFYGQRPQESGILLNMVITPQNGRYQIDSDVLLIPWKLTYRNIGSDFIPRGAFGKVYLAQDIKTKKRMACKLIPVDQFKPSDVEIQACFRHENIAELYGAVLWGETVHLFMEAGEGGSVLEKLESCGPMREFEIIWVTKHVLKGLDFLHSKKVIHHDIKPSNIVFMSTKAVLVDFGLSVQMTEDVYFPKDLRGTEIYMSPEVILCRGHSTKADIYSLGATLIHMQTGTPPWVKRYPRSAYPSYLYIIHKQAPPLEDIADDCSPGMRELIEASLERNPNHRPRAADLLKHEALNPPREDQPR

Row | SMILES | IC50
1 | N#Cc1cnc2c(Cl)cc(NC(c3ccc(F)cc3)c3cnccn3)cc2c1Nc1ccc(F)c(Cl)c1 (stereo not shown) [Example 801, 8-chloro-4-((3-chloro-4-fluorophenyl)amino)-6-(((4-fluorophenyl)(pyrazin-2-yl)methyl)amino)quinoline-3-carbonitrile] | 1070 nM
2 | CC(C)(C)N1CCC(n2cc([C@@H](Nc3cc(Cl)c4ncc(C#N)c(Nc5cccc(C(F)F)c5)c4c3)c3ccc(Cl)cc3)nn2)CC1 [Example 761, (S)-6-(((1-(1-(tert-butyl)piperidin-4-yl)-1H-1,2,3-triazol-4-yl)(4-chlorophenyl)methyl)amino)-8-chloro-4-((3-(difluoromethyl)phenyl)amino) quinoline-3-carbonitrile] | 484 nM
3 | CC1(C)C[C@H](n2cc([C@H](Nc3cc(Cl)c4ncc(C#N)c(Nc5ccc(F)c(Cl)c5)c4c3)c3ccccc3)nn2)CCN1 [Example 789, 8-chloro-4-((3-chloro-4-fluorophenyl)amino)-6-(((R)-(1-((R)-2,2-dimethylpiperidin-4-yl)-1H-1,2,3-triazol-4-yl)(phenyl)methyl)amino) quinoline-3-carbonitrile] | 657 nM
4 | Cc1cc2ncc(C#N)c(Nc3ccc(F)c(Cl)c3)c2cc1NC(c1ccc(F)cc1)c1cn(C)nn1 (stereo not shown) [Example 773, 4-((3-chloro-4-fluorophenyl)amino)-6-(((4-fluorophenyl)(1-methyl-1H-1,2,3-triazol-4-yl)methyl)amino)-7-methylquinoline-3-carbonitrile] | 1860 nM
5 | N#Cc1cnc2c(Cl)cc(N[C@@H](c3ccccc3)c3cn(C4CC5(CNC5)C4)nn3)cc2c1Nc1ccc(F)c(Cl)c1 [Example 775, (S)-6-(((1-(2-azaspiro[3.3]heptan-6-yl)-1H-1,2,3-triazol-4-yl)(phenyl)methyl)amino)-8-chloro-4-((3-chloro-4-fluorophenyl)amino)quinoline-3-carbonitrile] | 5 nM
6 | N#Cc1cnc2c(Cl)cc(N[C@@H](c3ccc(F)cc3)c3cn(C4CCN(C5COC5)CC4)nn3)cc2c1Nc1ccc(F)c(Cl)c1 [Compound 31] | 19 nM
7 | N#Cc1cnc2c(Cl)cc(N[C@@H](c3ccc(F)cc3)c3cn(C4CCN(C5CC5)CC4)nn3)cc2c1Nc1ccc(F)c(Cl)c1 [Example 821, (S)-8-chloro-4-((3-chloro-4-fluorophenyl)amino)-6-(((1-(1-cyclopropylpiperidin-4-yl)-1H-1,2,3-triazol-4-yl)(4-fluorophenyl)methyl)amino) quinoline-3-carbonitrile] | 21 nM
8 | CN(C)C(=O)N1CCC[C@@H]1Cn1cc(C(Nc2cc(Cl)c3ncc(C#N)c(Nc4ccc(F)c(Cl)c4)c3c2)c2ccc(F)cc2)nn1 (stereo partly drawn) [Example 818, (2R)-2-((4-(((8-chloro-4-((3-chloro-4-fluorophenyl)amino)-3-cyanoquinolin-6-yl)amino)(4-fluorophenyl)methyl)-1H-1,2,3-triazol-1-yl)methyl)-N,N-dimethylpyrrolidine-1-carboxamide] | 447 nM
9 | CN(C)CCNCc1cccc([C@H](Nc2cc(Cl)c3ncc(C#N)c(Nc4ccc(F)c(Cl)c4)c3c2)c2cn(C3CCN(C(C)(C)C)CC3)nn2)c1 [Example 726, (S)-6-(((1-(1-(tert-butyl)piperidin-4-yl)-1H-1,2,3-triazol-4-yl)(3-(((2-(dimethylamino)ethyl)amino)methyl)phenyl)methyl)amino)-8-chloro-4-((3-chloro-4-fluorophenyl)amino)quinoline-3-carbonitrile] | 39 nM
10 | CC(C)(C)N1CCC(n2cc([C@@H](Nc3cc(Cl)c4ncc(C#N)c(Nc5ccc(F)c(S(C)(=O)=O)c5)c4c3)c3ccc(Cl)cc3)nn2)CC1 [Example 754, (S)-6-(((1-(1-(tert-butyl)piperidin-4-yl)-1H-1,2,3-triazol-4-yl)(4-chlorophenyl)methyl)amino)-8-chloro-4-((4-fluoro-3-(methylsulfonyl)phenyl)amino) quinoline-3-carbonitrile] | 2530 nM
11 | N#Cc1cnc2c(Cl)cc(N[C@@H](c3ccc(F)cc3)c3cn(C4CCN(CC(F)F)CC4)nn3)cc2c1Nc1ccc(F)c(Cl)c1 [Example 823, (S)-8-chloro-4-((3-chloro-4-fluorophenyl)amino)-6-(((1-(1-(2,2-difluoroethyl)piperidin-4-yl)-1H-1,2,3-triazol-4-yl)(4-fluorophenyl)methyl)amino) quinoline-3-carbonitrile] | 97 nM

Further lines, results first:

Row | IC50 | SMILES
12 | 3960 nM | N#Cc1cnc2c(Cl)cc(NC(c3ccc(F)cc3)c3cccnc3)cc2c1Nc1ccc(F)c(Cl)c1 (stereo not shown) [Example 862, 8-chloro-4-((3-chloro-4-fluorophenyl)amino)-6-(((4-fluorophenyl)(pyridin-3-yl)methyl)amino)quinoline-3-carbonitrile]
13 | 68 nM | N#Cc1cnc2c(Cl)cc(NC(c3ccc(Cl)cc3)c3cn([C@H]4CCNC4)nn3)cc2c1Nc1ccc(F)c(Cl)c1 (stereo partly drawn) [Example 880, 8-chloro-4-((3-chloro-4-fluorophenyl)amino)-6-(((4-chlorophenyl)(1-((S)-pyrrolidin-3-yl)-1H-1,2,3-triazol-4-yl)methyl)amino)quinoline-3-carbonitrile]
14 | 6 nM | N#Cc1cnc2c(Cl)cc(N[C@@H](c3ccc(F)cc3)c3cn(C4CN5CCC4CC5)nn3)cc2c1Nc1ccc(F)c(Cl)c1 (stereo partly drawn) [Example 829, 8-chloro-4-((3-chloro-4-fluorophenyl)amino)-6-(((1S)-(4-fluorophenyl)(1-(quinuclidin-3-yl)-1H-1,2,3-triazol-4-yl)methyl)amino)quinoline-3-carbonitrile]
15 | > 1000 nM | N#Cc1cnc2c(Cl)cc(NC(c3ccc(Cl)cc3)c3cn(C4CCN(C(=O)OCc5ccccc5)CC4)nn3)cc2c1Nc1ccc(F)c(Cl)c1 (stereo not shown) [Example 913, benzyl 4-(4-(((8-chloro-4-((3-chloro-4-fluorophenyl)amino)-3-cyanoquinolin-6-yl)amino)(4-chlorophenyl)methyl)-1H-1,2,3-triazol-1-yl)piperidine-1-carboxylate]
16 | > 1000 nM | COc1cccc(C(Nc2cc(Cl)c3ncc(C#N)c(Nc4ccc(F)c(Cl)c4)c3c2)c2cn(C3CCN(C(=O)OCc4ccccc4)CC3)nn2)c1 (stereo not shown) [Example 902, benzyl 4-(4-(((8-chloro-4-((3-chloro-4-fluorophenyl)amino)-3-cyanoquinolin-6-yl)amino)(3-methoxyphenyl)methyl)-1H-1,2,3-triazol-1-yl)piperidine-1-carboxylate]
17 | 78 nM | Cn1cc(C(Nc2cc(Cl)c3ncc(C#N)c(Nc4ccc(F)c(Cl)c4)c3c2)c2ccc(Cl)c(Cl)c2)nn1 (stereo not shown) [Example 892, 8-chloro-4-((3-chloro-4-fluorophenyl)amino)-6-(((3,4-dichlorophenyl)(1-methyl-1H-1,2,3-triazol-4-yl)methyl)amino)quinoline-3-carbonitrile]
18 | 60 nM | N#Cc1cnc2c(Cl)cc(NC(c3ccccc3)c3cn(CC(=O)O)nn3)cc2c1Nc1ccc(F)c(Cl)c1 (stereo not shown) [Example 912, 2-(4-(((8-chloro-4-((3-chloro-4-fluorophenyl)amino)-3-cyanoquinolin-6-yl)amino)(phenyl)methyl)-1H-1,2,3-triazol-1-yl)acetic acid]
19 | 22 nM | N#Cc1cnc2c(Cl)cc(NC(c3ccc(F)cc3)c3cn([C@@H]4CCNC4)nn3)cc2c1Nc1ccc(F)c(Cl)c1 (stereo partly drawn) [Example 864, 8-chloro-4-((3-chloro-4-fluorophenyl)amino)-6-(((4-fluorophenyl)(1-((R)-pyrrolidin-3-yl)-1H-1,2,3-triazol-4-yl)methyl)amino)quinoline-3-carbonitrile]
20 | > 1000 nM | N#Cc1cnc2c(Cl)cc(NC(c3ccc(Cl)c(Cl)c3)c3cn(C4CCN(C(=O)OCc5ccccc5)CC4)nn3)cc2c1Nc1ccc(F)c(Cl)c1 (stereo not shown) [Example 909, benzyl 4-(4-(((8-chloro-4-((3-chloro-4-fluorophenyl)amino)-3-cyanoquinolin-6-yl)amino)(3,4-dichlorophenyl)methyl)-1H-1,2,3-triazol-1-yl)piperidine-1-carboxylate]
21 | 756 nM | N#Cc1cnc2ccc(NC(c3ccc(F)cc3)c3cn(C4CCN(C(=O)OCc5ccccc5)CC4)nn3)cc2c1Nc1ccc(F)c(Cl)c1 (stereo not shown) [Example 834, benzyl 4-(4-(((4-((3-chloro-4-fluorophenyl)amino)-3-cyanoquinolin-6-yl)amino)(4-fluorophenyl)methyl)-1H-1,2,3-triazol-1-yl)piperidine-1-carboxylate]
22 | > 10000 nM | Cn1ccc(C(Nc2cc(Cl)c3ncc(C#N)c(Nc4ccc(F)c(Cl)c4)c3c2)c2ccc(F)cc2)n1 (stereo not shown) [Example 846, 8-chloro-4-((3-chloro-4-fluorophenyl)amino)-6-(((4-fluorophenyl)(1-methy-1-1H-pyrazol-3-yl)methyl)amino)quinoline-3-carbonitrile]
23 | 90 nM | CCN1CC(n2cc(C(Nc3cc(Cl)c4ncc(C#N)c(Nc5ccc(F)c(Cl)c5)c4c3)c3ccc(Cl)cc3)nn2)C1 (stereo not shown) [Example 871, 8-chloro-4-((3-chloro-4-fluorophenyl)amino)-6-(((4-chlorophenyl)(1-(1-ethylazetidin-3-yl)-1H-1,2,3-triazol-4-yl)methyl)amino)quinoline-3-carbonitrile]
24 | 7 nM | CCN1CCC(n2cc(C(Nc3cc(Br)c4ncc(C#N)c(Nc5ccc(F)c(Cl)c5)c4c3)c3ccc(F)cc3)nn2)CC1 (stereo not shown) [Example 833, 8-bromo-4-((3-chloro-4-fluorophenyl)amino)-6-(((1-(1-ethylpiperidin-4-yl)-1H-1,2,3-triazol-4-yl)(4-fluorophenyl)methyl)amino) quinoline-3-carbonitrile]
25 | 8 nM | N#Cc1cnc2c(Cl)cc(NC(c3ccccc3)c3cn(C4CCNCC4)nn3)cc2c1Nc1ccc(F)c(Cl)c1 (stereo not shown) [Example 921, 8-chloro-4-((3-chloro-4-fluorophenyl)amino)-6-((phenyl (1-(piperidin-4-yl)-1H-1,2,3-triazol-4-yl)methyl)amino)quinoline-3-carbonitrile]
